Experimental findings from patent US20230141981A1, “NOVEL COMPOUNDS AND COMPOSITION FOR TARGETED THERAPY OF KIDNEY-ASSOCIATED CANCERS” (SHANGHAI MICURX PHARMACEUTICALS CO., LTD, priority 2020, published 2023) are described below.

Bridge positions count the residues as written; N and C are the ends. Square brackets hold non-standard residues; d marks the D form. Peptide text beside a SMILES is read from it. * marks the point of attachment. X1 = CNC(=O)c1ccccc1Sc1ccc2c(/C=C/c3ccccn3)nn(C(=O)N(CCNC(=O)CC[C@H](N)C(=O)O)CCC(=O)*)c2c1; X3 = CNC(=O)c1ccccc1Sc1ccc2c(/C=C/c3ccccn3)nn(C(=O)*)c2c1; Dab = NCC[C@H](N)C(=O)O A value given as a limit tells only on which side of the number the result lay.

Data set [1] in a line: Mouse PK: axitinib concentration in blood plasma and kidney tissue post-administration. It is filed as in vivo. The settings on record: oral gavage, single dose 10 mg/kg. The method, then: Preferential accumulation of compounds provided herein in kidneys (or near the site of a kidney cancer) may be evaluated by pharmacokinetic (PK) tests, such as in a standard rat PK test.
In PK studies, the levels (concentration) of a therapeutic drug is determined in key body compartments, such as blood and select organ tissues, is determined over a given time course. […] For therapy of renal cancers, the targeted organ is kidney.

Another data set has as its system Caki-1. As to the kind of experiment: In vitro inhibition of cancer cells, CTG assay, 72 h. It is filed as cell-based, human. The settings on record: Caki-1, 72 h incubation. An excerpt:
In vitro activity of compounds provided herein may be assessed by standard testing procedures using various cancer cell lines (alongside normal cell comparators), such as described, for example, in ACS Pharmacol. Transl. Sci. 2019, vol. 2, p. 18; J. Med. Chem. 2018, vol. 61, p. 5304; and methods in references cited therein.
Therein, Caki-1 is a human clear cell renal cell carcinoma (ccRCC) line. The ACTHN cell line was derived from the pleural effusion of a patient with metastatic renal carcinoma. The 786-O cell line is a hypertriploid renal cancer cell carcinoma cell line. Generally, cells were plated into […] microplates and pre-incubated for 24 h. Subsequently, the test compound solutions were added, and cells growth inhibition analyzed with 9-point data plot. After 72 h of the incubation, the number and proportion of the viable cells was determined by CTG assay, and IC50 values calculated.

A short description of data set [2]: 14-days repeat-dose mouse tolerability test. The settings on record: in vivo, 18 mg/kg/day, read-out: well-tolerated dose, 14-days repeat-dose. An excerpt:
In addition the high efficacy against renal cancers, such drug must be well-tolerated.

`CNC(=O)c1ccccc1Sc1ccc2c(/C=C/c3ccccn3)n[nH]c2c1` [Axitinib, N-methyl-2-[[3-[(E)-2-pyridin-2-ylethenyl]-1H-indazol-6-yl]sulfanyl]benzamide]: the “Blood Plasma Conc. (axitinib)” value in data set [1] (T = 4 h) is “T = 4 h: 95.1 ng/mL”; in data set [1] (T = 6 h) it was “T = 6 h: 35.4 ng/mL”. What is called IC50 is the concentration at which inhibition is half-maximal. Higher therefore signals a need for much substance. The compound `CNC(=O)c1ccccc1Sc1ccc2c(/C=C/c3ccccn3)nn(C(=O)N[C@@H](CCN)C(=O)N[C@H](C(=O)N[C@@H](CCN)C(=O)N[C@H]3CCNC(=O)[C@H]([C@@H](C)O)NC(=O)[C@H](CCN)NC(=O)[C@H](CCN)NC(=O)[C@H](CC(C)C)NC(=O)[C@@H](Cc4ccccc4)NC(=O)[C@H](CCN)NC3=O)[C@@H](C)O)c2c1` [Example 17] (X3-[Dab]T[Dab][Dab][Dab][dF]L[Dab][Dab]T; lactam 4-C) displayed an IC50 with Caki-1 of 8.6 µM. On to `CNC(=O)c1ccccc1Sc1ccc2c(/C=C/c3ccccn3)nn(C(=O)N(CCNC(=O)CC[C@H](N)C(=O)O)CCC(=O)N[C@H](C(=O)N[C@@H](CCN)C(=O)N[C@H]3CCNC(=O)[C@H]([C@@H](C)O)NC(=O)[C@H](CCN)NC(=O)[C@H](CCN)NC(=O)[C@H](CC(C)C)NC(=O)[C@@H](Cc4ccccc4)NC(=O)[C@H](CCN)NC3=O)[C@@H](C)O)c2c1` [Example 29] (X1-T[Dab][Dab][Dab][dF]L[Dab][Dab]T; lactam 3-C; N-terminus assumed), for which the MTD at 336 h in data set [2] is at least 18 mg/kg/day.

In turn, `Cc1ccc(Nc2nccc(N(C)c3ccc4c(C)n(C)nc4c3)n2)cc1S(N)(=O)=O` [Pazopanib, 5-[[4-[(2,3-dimethylindazol-6-yl)-methylamino]pyrimidin-2-yl]amino]-2-methylbenzenesulfonamide] displayed an IC50 in the data set on Caki-1 (Homo sapiens) of 19.4 µM.

In the data set on Caki-1 (Homo sapiens), `CCN(CC)CCNC(=O)c1c(C)[nH]c(/C=C2\C(=O)Nc3ccc(F)cc32)c1C` [Sunitinib, (Z)—N-(2-(diethylamino)ethyl)-5-((5-fluoro-2-oxoindolin-3-ylidene)methyl)-2,4-dimethyl-1H-pyrrole-3-carboxamide] displayed a half-maximal inhibitory concentration (IC50) of 6.9 µM.
